Assay [1] has as its system Histone H4 acetylation in T24 human bladder cancer cells. The assay can be described thus: Histone H4 acetylation in whole cells by immunoblots. In kind it is cell-based. The following applies: ratio of EC50 of compound to EC50 of control MS-275, 16 h. As to the method:
T24 human bladder cancer cells growing in culture were incubated with HDAC inhibitors for 16 h. Histones were extracted from the cells after the culture period as described by M. Yoshida et al. (J. Biol. Chem. 265(28): 17174-17179 (1990)). […] of total histone protein was loaded onto SDS/PAGE and transferred to nitrocellulose membranes. Membranes were probed with polyclonal antibodies specific for acetylated histone H-4 (Upstate Biotech Inc.), followed by horse radish peroxidase conjugated secondary antibodies (Sigma). Enhanced Chemiluminescence (ECL) (Amersham) detection was performed using Kodak films (Eastman Kodak). Acetylated H-4 signal was quantified by densitometry. Data are presented as the ratio of the concentration effective for […] the acetylated H-4 signal by 50% (EC50) using the indicated compound of the invention to a control compound, MS-275. If the indicated ratio is 1, then the compound of the invention is as effective as the MS-275 control compound. […] Further information regarding the MS-275 compound can be found in Suzuki et al., J. Med. Chem. 1999, pp. 3001-3003.
In general terms: A western blot detects proteins with antibodies after separation by electrophoresis.

For assay [2], the target named is T1, cloned recombinant human HDAC-1 enzyme (Homo sapiens, UniProt Q13547).
T1 construct: made in house; host or cells: Baculovirus insect cell expression system
T1 sequence (Q13547 whole entry): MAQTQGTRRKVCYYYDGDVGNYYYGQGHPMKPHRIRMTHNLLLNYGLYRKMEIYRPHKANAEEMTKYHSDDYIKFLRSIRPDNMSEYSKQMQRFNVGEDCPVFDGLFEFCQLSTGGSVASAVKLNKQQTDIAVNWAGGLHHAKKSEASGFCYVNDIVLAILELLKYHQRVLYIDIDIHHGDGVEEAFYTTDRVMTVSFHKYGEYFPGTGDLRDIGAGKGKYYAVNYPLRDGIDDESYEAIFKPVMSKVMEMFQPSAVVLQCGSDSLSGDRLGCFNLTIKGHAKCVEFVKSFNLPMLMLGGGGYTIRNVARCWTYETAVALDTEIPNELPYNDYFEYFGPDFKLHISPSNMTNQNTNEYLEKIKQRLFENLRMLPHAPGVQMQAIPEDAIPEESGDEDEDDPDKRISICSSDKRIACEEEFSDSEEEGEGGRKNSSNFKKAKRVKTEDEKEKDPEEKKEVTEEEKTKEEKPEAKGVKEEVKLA
The assay can be described thus: HDAC-1 enzymatic inhibition, Assay 1 ([3H]-acetylated histone substrate). In kind it is biochemical. The following applies: Assay 1: [3H]-labeled acetylated histone substrate, recombinant hHDAC-1. As to the method: Assay 1. HDAC inhibitors were screened against a cloned recombinant human HDAC-1 enzyme expressed and purified from a Baculovirus insect cell expression system. For deacetylase assays, 20,000 cpm of the [^3H]-metabolically labeled acetylated histone substrate (M. Yoshida et al., J. Biol. Chem. 265(28): 17174-17179 (1990)) was incubated with 30 μg of the cloned recombinant hHDAC-1 for 10 minutes at 37° C. The reaction was stopped by adding acetic acid (0.04 M, final concentration) and HCl (250 mM, final concentration). The mixture was extracted with ethyl acetate and the released [^3H]-acetic acid was quantified by scintillation counting. For inhibition studies, the enzyme was preincubated with compounds at 4° C. for 30 minutes prior to initiation of the enzymatic assay. IC50 values for HDAC enzyme inhibitors were determined by performing dose response curves with individual compounds and determining the concentration of inhibitor producing fifty percent of the maximal inhibition.
Assay 1 was used to measure HDAC activity of compounds 10c, 13e, 16d, 26b, 44, 47, 61a, 61b, 63, 134, 138, and 308. Assay 2 was used to measure HDAC activity of compounds 361, 366, 367, 368, 369, 370, 371, 372, 373, 374, 375, 376, 377, and 378. In Table 14, “a” indicates activity of ≦0.1 μM, “b” indicates activity of ≦1 μM, “c” indicates activity of ≦5 μM, and “d” indicates activity of >5 μm. For the H4-Ac T24 EC vs. MS-275 assay in Table 14, “u” indicates less than 1, “v” indicates 1, and “w” indicates greater than 1. For the H3 Ac t24 assay in Table 14, “x” indicates activity of ≦1 μM, “y” indicates activity of ≦10 μM, and “z” indicates activity of ≦20 μM.

The next assay has as its system SW48 colon cancer cells. Briefly: Human tumor xenograft in vivo, SW48. The following applies: Mus musculus, 40 mg/kg ip, mice, read-out: % Inhibition (relative to vehicle control) SW48. The method, then:
(§1) Eight to ten week old female BCD1 mice (Taconic Labs, Great Barrington, N.Y.) were injected subcutaneously in the flank area with 2×10^6 preconditioned HCT116 human colorectal carcinoma cells, SW48 colon cancer cells, and A549 lung cancer cells. Preconditioning of these cells was done by a minimum of three consecutive tumor transplantations in the same strain of nude mice. Subsequently, tumor fragments of approximately 30 mgs were excised and implanted subcutaneously in mice, in the left flank area, under Forene anesthesia (Abbott Labs, Geneva, Switzerland). When the tumors reached a mean volume of 100 mm^3, the mice were treated intraperitoneally by daily injection, with a solution of the histone deacetylase inhibitor in DMSO, at a starting dose of 10 mg/kg. The optimal dose of the HDAC inhibitor was established by dose response experiments according to standard protocols. Tumor volume was calculated every second day post infusion according to standard methods (e.g., Meyer et al., Int. J. Cancer 43: 851-856 (1989)).
(In xenograft studies the graft and the host belong to different species.)

The next assay has as its system A549 lung cancer cells. Briefly: Human tumor xenograft in vivo, A549. The following applies: mice. The method, then: as §1
In a further assay the test system is HCT116 cells. The assay can be described thus: MTT assay. It counts as cell-based. As to conditions: Homo sapiens, HCT-116, 72 hours. As to the method: HCT116 cells (2000/well) were plated into 96-well tissue culture plates one day before compound treatment. Compounds at various concentrations were added to the cells. The cells were incubated for 72 hours at 37° C. in 5% CO2 incubator. MTT (3-[4,5-dimethylthiazol-2-yl]-2,5diphenyl tetrazolium bromide, Sigma) was added at a final concentration of 0.5 mg/ml and incubated with the cells for 4 hours before one volume of solubilization buffer (50% N,N-dimethylformamide, 20% SDS, pH 4.7) was added onto the cultured cells. After overnight incubation, solubilized dye was quantified by colorimetric reading at 570 nM using a reference at 630 nM using an MR700 plate reader (Dynatech Laboratories Inc.). OD values were converted to cell numbers according to a standard growth curve of the relevant cell line. The concentration which reduces cell numbers to 50% of that of solvent treated cells is determined as MTT IC50. In Table 14, “a” indicates activity of ≦0.1 μM, “b” indicates activity of ≦1 μM, and “c” indicates activity of ≦5 μM.

In assay [3] the test system is HCT116 human colorectal carcinoma cells. Briefly: Human tumor xenograft in vivo, HCT116. As to conditions: Mus musculus, HCT-116; 30 mg/kg ip, mice; read-out: % Inhibition (relative to vehicle control) HCT116. As to the method:
as §1

pIC50: −log10 of the molar value.

By pIC50 is commonly meant −log10 of the IC50, conventionally taken in molar units. As to `Nc1ccccc1NC(=O)c1ccc(CNc2nccc(-c3ccccn3)n2)cc1` [26b, N-(2-Amino-phenyl)-4-[(4-pyridin-2-yl-pyrimidin-2-ylamino)-methyl]-benzamide], the “H4-Ac T24 EC vs. MS-275” value in assay [1] is given as “v (“v” indicates 1)”. For the same compound, the results for the pIC50 (in assay [2]; with HCT116 cells) were 5.30 to 6.00 and no less than 7.00, respectively. Further, the inhibition in vivo at 40 mg/kg in the assay on SW48 colon cancer cells amounted to 75.1%. Moreover, in the assay on A549 lung cancer cells (40 mg/kg ip), the “% Inhibition (relative to vehicle control) A549” value was determined as 74.4%.

Consider `CN(C)CCOc1ccc2nc(NCc3ccc(C(=O)Nc4ccccc4N)cc3)sc2c1` [compound 138, N-(2-Amino-phenyl)-4-{[6-(2-dimethylamino-ethoxy)-benzothiazol-2-ylamino]-methyl}-benzamide], for which, in assay [1], the “H4-Ac T24 EC vs. MS-275” value is given as “u (“u” indicates less than 1)”. For the same compound, the pIC50 in assay [2] was 5.30 to 6.00; with HCT116 cells, no less than 7.00. Also, in assay [3], the inhibition in vivo at 30 mg/kg was found to be 79.8%. Also, in the assay on A549 lung cancer cells (30 mg/kg ip), the “% Inhibition (relative to vehicle control) A549” value is 83.7%.
